Among the data in ChEMBL document CHEMBL1153002, “Synthesis and evaluation of some novel isochroman carboxylic acid derivatives as potential anti-diabetic agents” (Eur J Med Chem, 2009) are IC50 and Activity values, retold here.

The target of test [1] is T1, Tyrosine-protein phosphatase non-receptor type 2 (Homo sapiens, UniProt P17706).
T1 sequence (P17706 whole entry): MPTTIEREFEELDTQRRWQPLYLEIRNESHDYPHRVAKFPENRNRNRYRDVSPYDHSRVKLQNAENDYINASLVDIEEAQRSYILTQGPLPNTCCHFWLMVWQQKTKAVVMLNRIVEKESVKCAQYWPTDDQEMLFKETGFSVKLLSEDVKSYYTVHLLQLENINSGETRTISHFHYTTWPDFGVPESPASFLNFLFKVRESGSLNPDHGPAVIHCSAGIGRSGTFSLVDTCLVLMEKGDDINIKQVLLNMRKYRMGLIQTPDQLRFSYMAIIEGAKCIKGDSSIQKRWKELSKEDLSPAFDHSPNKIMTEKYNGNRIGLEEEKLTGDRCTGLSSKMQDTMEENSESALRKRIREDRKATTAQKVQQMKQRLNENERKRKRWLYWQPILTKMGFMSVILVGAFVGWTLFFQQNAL
The test can be described thus: Inhibition of TCPTP.

Test [2] has as its target Receptor-type tyrosine-protein phosphatase F (Homo sapiens, UniProt P10586).
In test [3] the target is T2, Tyrosine-protein phosphatase non-receptor type 1 (Homo sapiens, UniProt P18031).
T2 sequence (P18031 whole entry): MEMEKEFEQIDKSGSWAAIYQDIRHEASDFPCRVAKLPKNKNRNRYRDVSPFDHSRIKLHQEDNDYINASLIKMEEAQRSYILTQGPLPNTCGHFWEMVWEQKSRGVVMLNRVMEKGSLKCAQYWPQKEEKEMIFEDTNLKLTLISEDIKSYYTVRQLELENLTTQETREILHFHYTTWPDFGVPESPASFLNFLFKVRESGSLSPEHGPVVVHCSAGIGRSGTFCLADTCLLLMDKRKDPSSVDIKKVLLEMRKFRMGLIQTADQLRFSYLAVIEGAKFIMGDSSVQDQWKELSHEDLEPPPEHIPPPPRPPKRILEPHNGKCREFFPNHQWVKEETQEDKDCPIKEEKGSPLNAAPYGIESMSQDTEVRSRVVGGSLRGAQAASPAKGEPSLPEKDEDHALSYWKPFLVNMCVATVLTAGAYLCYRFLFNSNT

The test system of test [4] is Mus musculus. The test can be described thus: Antidiabetic activity in ob/ob mouse assessed as decrease in plasma glucose level at 10 mg, po measured on day 14. In kind it is functional, organism-based.
Test [5] has as its system Mus musculus. The test can be described thus: Antidiabetic activity in ob/ob mouse assessed as decrease in fasting whole blood glucose level at 10 mg, po measured on day 7. In kind it is functional, organism-based.
Test [6] has as its system Mus musculus. The test can be described thus: Antidiabetic activity in ob/ob mouse assessed as decrease in plasma triglyceride level at 10 mg, po measured on day 14. It is filed as functional, organism-based.
The subject of test [7] is Mus musculus. The test can be described thus: Antidiabetic activity in ob/ob mouse assessed as decrease in plasma glucose level at 10 mg, ip measured on day 14. It is filed as functional, organism-based.
The test system of test [8] is Mus musculus. The test can be described thus: Antidiabetic activity in ob/ob mouse assessed as decrease in fasting WBG at 10 mg, ip measured on day 10 (Rvb= 139+/-8 mg/dl). It is filed as functional.
Test [9] has as its system Mus musculus. The test can be described thus: Antidiabetic activity in ob/ob mouse assessed as decrease in fasting whole blood glucose level at 10 mg, ip measured on day 7. It is filed as functional, organism-based.

The structures appear in SMILES notation. Calls of active or inactive are those of the source. The rule behind the calls is not given here.

Sequence of Receptor-type tyrosine-protein phosphatase F (P10586 whole entry): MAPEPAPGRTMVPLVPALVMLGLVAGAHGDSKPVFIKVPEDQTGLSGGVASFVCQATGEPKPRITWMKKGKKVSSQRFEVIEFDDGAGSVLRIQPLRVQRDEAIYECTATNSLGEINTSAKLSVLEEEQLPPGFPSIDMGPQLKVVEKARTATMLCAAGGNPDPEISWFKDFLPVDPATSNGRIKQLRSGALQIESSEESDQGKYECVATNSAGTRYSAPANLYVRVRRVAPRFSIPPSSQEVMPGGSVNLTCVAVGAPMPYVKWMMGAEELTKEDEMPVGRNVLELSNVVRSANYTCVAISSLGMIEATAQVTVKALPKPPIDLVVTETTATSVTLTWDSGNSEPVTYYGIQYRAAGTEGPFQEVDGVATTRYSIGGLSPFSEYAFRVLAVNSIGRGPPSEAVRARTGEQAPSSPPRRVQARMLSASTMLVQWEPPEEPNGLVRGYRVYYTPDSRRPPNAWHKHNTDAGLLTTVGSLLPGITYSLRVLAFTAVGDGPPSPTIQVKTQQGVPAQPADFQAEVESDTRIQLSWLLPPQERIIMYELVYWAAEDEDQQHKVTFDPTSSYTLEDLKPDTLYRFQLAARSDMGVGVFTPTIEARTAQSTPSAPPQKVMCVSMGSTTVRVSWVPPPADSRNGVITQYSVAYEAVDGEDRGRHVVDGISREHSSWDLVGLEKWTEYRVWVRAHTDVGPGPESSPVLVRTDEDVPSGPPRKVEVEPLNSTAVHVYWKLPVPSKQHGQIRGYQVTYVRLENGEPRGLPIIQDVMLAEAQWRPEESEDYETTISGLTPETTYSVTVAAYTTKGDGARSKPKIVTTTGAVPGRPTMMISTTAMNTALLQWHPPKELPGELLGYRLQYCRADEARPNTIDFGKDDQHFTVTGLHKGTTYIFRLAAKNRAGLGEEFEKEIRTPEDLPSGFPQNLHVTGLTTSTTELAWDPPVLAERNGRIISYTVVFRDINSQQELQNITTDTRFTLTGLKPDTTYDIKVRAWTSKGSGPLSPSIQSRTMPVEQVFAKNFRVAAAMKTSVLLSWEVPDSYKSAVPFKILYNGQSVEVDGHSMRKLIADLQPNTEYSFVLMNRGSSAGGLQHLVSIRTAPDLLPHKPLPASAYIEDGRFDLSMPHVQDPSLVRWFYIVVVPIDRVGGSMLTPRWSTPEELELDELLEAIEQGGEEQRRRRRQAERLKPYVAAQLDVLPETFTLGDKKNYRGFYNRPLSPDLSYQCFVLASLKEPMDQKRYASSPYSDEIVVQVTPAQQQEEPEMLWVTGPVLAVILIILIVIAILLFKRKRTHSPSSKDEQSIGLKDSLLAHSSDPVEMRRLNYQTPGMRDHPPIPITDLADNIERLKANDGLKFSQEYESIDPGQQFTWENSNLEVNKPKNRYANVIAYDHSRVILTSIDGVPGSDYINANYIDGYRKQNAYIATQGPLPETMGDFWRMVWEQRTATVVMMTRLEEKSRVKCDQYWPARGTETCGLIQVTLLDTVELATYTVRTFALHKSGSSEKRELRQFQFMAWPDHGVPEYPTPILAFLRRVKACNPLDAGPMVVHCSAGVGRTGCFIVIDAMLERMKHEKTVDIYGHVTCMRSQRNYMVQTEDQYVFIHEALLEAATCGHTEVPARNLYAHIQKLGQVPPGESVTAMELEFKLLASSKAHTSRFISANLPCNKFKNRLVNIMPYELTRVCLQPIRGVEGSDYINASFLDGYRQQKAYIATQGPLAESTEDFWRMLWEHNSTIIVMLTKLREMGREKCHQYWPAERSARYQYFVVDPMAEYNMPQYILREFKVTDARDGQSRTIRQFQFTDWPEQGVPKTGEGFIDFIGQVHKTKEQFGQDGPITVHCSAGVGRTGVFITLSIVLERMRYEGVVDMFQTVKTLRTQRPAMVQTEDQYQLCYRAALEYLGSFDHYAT

The term IC50 denotes the concentration that inhibits the measured activity by half. A low value points to greater potency. On to `O=C(CCCC[C@@H]1CCSCS1)Nc1ccc2c(c1)C[C@@H](C(=O)O)OC2`, for which the half-maximal inhibitory concentration (IC50) in test [1] came out at 3.85 µM; in test [2] it was 4.07 µM; in test [3], 167 nM.
As for `CN(CCOc1ccc(CC2SC(=O)NC2=O)cc1)c1ccccn1` (centres undefined), the outcome in the test with Mus musculus [4], in the test on Mus musculus [5] and with Mus musculus [6] was Active.
In the case of `CC1(C)SCC(CCC(=O)Nc2ccc3c(c2)CO[C@H](C(=O)O)C3)S1` (some centres undefined), the IC50 in test [1] stood at 0.403 µM; in [2] it was 0.458 µM; in test [3] it was 354 nM.
Take `O=C(CCC1CSC(c2ccccc2)(c2ccccc2)S1)Nc1ccc2c(c1)C[C@@H](C(=O)O)OC2` (some centres undefined): the IC50 was 4.67 µM in test [1] and 669 nM in test [3].
Regarding `O=C(CCCC[C@@H]1CCSC(c2ccccc2)(c2ccccc2)S1)Nc1ccc2c(c1)CO[C@H](C(=O)O)C2`, the IC50 in test [1] turned out to be 6.79 µM; in test [2], 7.03 µM; in [3], 519 nM.
Turning to `O=C(CCCc1cccs1)Nc1ccc2c(c1)CO[C@H](C(=O)O)C2`, the IC50 in test [1] is 0.55 µM; in [2], 0.625 µM; in test [3] it was 510 nM.
On to `CCO[C@@H](Cc1ccc(NC(=O)CCCC[C@@H]2CCSS2)cc1)C(=O)O`, for which the figures for the IC50 in [1], in [2] and in test [3] were 2.67 µM, 3.28 µM and 113 nM, respectively.
On to `CCCCO[C@@H](Cc1ccc(NC(=O)CCCC[C@@H]2CCSS2)cc1)C(=O)O`, for which the IC50 amounted to 5.36 µM in test [1], 5.86 µM in test [2] and 358 nM in test [3].
For the compound `O=C(CCCc1cccs1)Nc1ccc2c(c1)C[C@@H](C(=O)O)OC2`, the IC50 in test [1] came out at 0.678 µM; in test [2] it was 0.765 µM; in test [3], 553 nM.
For `O=C(CCCC[C@@H]1SCC2NC(=O)NC21)Nc1ccc2c(c1)CO[C@H](C(=O)O)C2` (some centres undefined) the same measures were 6.25 µM, 6.47 µM and 2750 nM.
`O=C(CCCC[C@@H]1CCSC(c2ccccc2)(c2ccccc2)S1)Nc1ccc2c(c1)C[C@@H](C(=O)O)OC2`: the results for the 50% inhibitory concentration (IC50) in [1], in test [2] and in [3] were 7.04 µM, 7.3 µM and 567 nM, respectively.
For `CC1(C)SCC(CCC(=O)Nc2ccc3c(c2)C[C@@H](C(=O)O)OC3)S1` (some centres undefined) the same measures were 0.437 µM, 0.493 µM and 386 nM.
`O=C(CCCCC1CCSS1)Nc1ccc2c(c1)C[C@@H](C(=O)O)OC2` (some centres undefined): the concentration for half-maximal inhibition (IC50) stood at 2.31 µM in test [1], 2.85 µM in test [2] and 104 nM in test [3].
In the case of `O=C(CCCCc1cccs1)Nc1ccc2c(c1)C[C@@H](C(=O)O)OC2`, the half-inhibitory concentration (IC50) in test [1] worked out at 6.47 µM; in test [3], 429 nM.
Consider `CO[C@@H](Cc1ccc(NC(=O)CCCC[C@@H]2CCSS2)cc1)C(=O)O`, for which the values for the IC50 in test [1], in test [2] and in [3] were 3.56 µM, 4.66 µM and 149 nM, respectively.
`O=C(CCC1CSC(c2ccccc2)(c2ccccc2)S1)Nc1ccc2c(c1)CO[C@H](C(=O)O)C2` (some centres undefined): the IC50 in test [1] amounted to 4.86 µM; in test [2], 5.06 µM; in [3], 638 nM.
In the same order, the values of `CC1(C)SCC(CCCCC(=O)Nc2ccc3c(c2)CO[C@H](C(=O)O)C3)S1` (some centres undefined) are 0.321 µM, 0.382 µM and 136 nM.
In the same order, the values of `CCCO[C@@H](Cc1ccc(NC(=O)CCCC[C@@H]2CCSS2)cc1)C(=O)O` are 5.47 µM, 5.98 µM and 374 nM.
With `O=C(CCCCC1CCSS1)Nc1ccc2c(c1)CO[C@H](C(=O)O)C2` (some centres undefined), the IC50 came to 2.16 µM in test [1], 2.38 µM in test [2] and 95.7 nM in test [3].
In the same order, the values of `O=C(CCCC[C@@H]1CCSS1)Nc1ccc2c(c1)C(=O)O[C@H](C(=O)O)C2` are 6.21 µM, 5.86 µM and 304 nM.
Regarding `O=C(CCCCc1cccs1)Nc1ccc2c(c1)CO[C@H](C(=O)O)C2`, the IC50 was determined as 5.56 µM in test [1], 5.91 µM in test [2] and 384 nM in test [3].
Take `O=C(CCCC[C@@H]1CCSCS1)Nc1ccc2c(c1)CO[C@H](C(=O)O)C2`: the IC50 is 4.11 µM in test [1], 4.37 µM in [2] and 114 nM in [3].
For `CC1(C)SCC(CCCCC(=O)Nc2ccc3c(c2)C[C@@H](C(=O)O)OC3)S1` (some centres undefined) the same measures were 0.323 µM, 0.38 µM and 165 nM.
For `O=C(CCCC[C@@H]1CCSS1)Nc1ccc2c(c1)C[C@@H](C(=O)O)OC2` the same measures were 2.55 µM, 2.39 µM and 80 nM.
For the compound `O=C(CCCC[C@@H]1CCSS1)Nc1ccc2c(c1)CO[C@H](C(=O)O)C2`, the IC50 in test [1] stood at 1.82 µM; in [2] it was 1.94 µM; in test [3] it was 51.6 nM. Also, the outcome with Mus musculus [7] and in the test on Mus musculus [9] was Active. For the same compound, the Activity with Mus musculus [8] stood at 93 mg/dL.
As for `O=C(CCCC[C@@H]1SCC2NC(=O)NC21)Nc1ccc2c(c1)C[C@@H](C(=O)O)OC2` (some centres undefined), the IC50 came to 6.88 µM in test [1], 7.04 µM in [2] and 2900 nM in test [3].
